The target of assay [1] is T1, UapA (Aspergillus nidulans, UniProt Q07307).
T1 construct: full-length UapA, C-terminal GFP-type functional tag kept, gpdA promoter, expressed in A. nidulans Δ7 strain lacking 7 major nucleobase transporters; homodimer
Description: [3H]-xanthine uptake in germinating conidiospores, initial rates. The class given is cell-based. The conditions noted are these: pH 6.8, 37°C; H+ symport; labelled compound; read-out: Km app.

The target of assay [2] is T1, UapA. The assay is described as follows: competition of [3H]-xanthine uptake in germinating conidiospores. In kind it is cell-based.

A word on the Km: it is the concentration of substrate that gives half-maximal velocity. For orientation: Ki means a measure of affinity in units of concentration, obtained from inhibition or displacement. Read a low Ki as a stronger hold on the target.

SMILES strings stand for the structures.

With `O=c1[nH]c(=O)c2[nH]cnc2[nH]1` [XA, xanthine], at UapA [1], the Michaelis constant (Km) was 6 µM.

For `O=c1[nH]c(=O)c2c[nH]nc2[nH]1` [OX, oxypurinol], affinity at UapA [2] was put at a Ki of 103 µM.

These data come from publication PMC9434233, “Transmembrane helices 5 and 12 control transport dynamics, substrate affinity, and specificity in the elevator-type UapA transporter” (Genetics, 2022).
